{"source": "paper PMC10241523", "about": "(The Journal of Venomous Animals and Toxins Including …, 2023)", "key": {"[1]": {"test_system": "sodium channel currents in rat DRG neurons", "assay_type": "cell-based", "conditions": "10 μM; n = 3"}, "[2]": {"test_system": "potassium channel currents in rat DRG neurons", "assay_type": "cell-based", "conditions": "10 μM"}, "[3]": {"test_system": "calcium channel currents in rat DRG neurons", "assay_type": "cell-based", "conditions": "10 μM"}, "human NaV1.3 (hNaV1.3)": {"test_system": "human NaV1.3 (hNaV1.3)", "assay_type": "cell-based", "conditions": "10 μM"}, "human NaV1.7 (hNaV1.7)": {"test_system": "human NaV1.7 (hNaV1.7)", "assay_type": "cell-based", "conditions": "10 μM"}, "hNaV1.8": {"test_system": "hNaV1.8", "assay_type": "cell-based, human"}, "human CaV2.2 (hCaV2.2)": {"test_system": "human CaV2.2 (hCaV2.2)", "assay_type": "cell-based", "conditions": "10 μM"}, "Kunming mice": {"test_system": "Kunming mice", "conditions": "mouse, in vivo"}, "human CaV1.2 (hCaV1.2) [4]": {"target": "T1, human CaV1.2 (hCaV1.2) (Homo sapiens, UniProt Q13936)", "T1 sequence (Q13936 whole entry, looked up)": "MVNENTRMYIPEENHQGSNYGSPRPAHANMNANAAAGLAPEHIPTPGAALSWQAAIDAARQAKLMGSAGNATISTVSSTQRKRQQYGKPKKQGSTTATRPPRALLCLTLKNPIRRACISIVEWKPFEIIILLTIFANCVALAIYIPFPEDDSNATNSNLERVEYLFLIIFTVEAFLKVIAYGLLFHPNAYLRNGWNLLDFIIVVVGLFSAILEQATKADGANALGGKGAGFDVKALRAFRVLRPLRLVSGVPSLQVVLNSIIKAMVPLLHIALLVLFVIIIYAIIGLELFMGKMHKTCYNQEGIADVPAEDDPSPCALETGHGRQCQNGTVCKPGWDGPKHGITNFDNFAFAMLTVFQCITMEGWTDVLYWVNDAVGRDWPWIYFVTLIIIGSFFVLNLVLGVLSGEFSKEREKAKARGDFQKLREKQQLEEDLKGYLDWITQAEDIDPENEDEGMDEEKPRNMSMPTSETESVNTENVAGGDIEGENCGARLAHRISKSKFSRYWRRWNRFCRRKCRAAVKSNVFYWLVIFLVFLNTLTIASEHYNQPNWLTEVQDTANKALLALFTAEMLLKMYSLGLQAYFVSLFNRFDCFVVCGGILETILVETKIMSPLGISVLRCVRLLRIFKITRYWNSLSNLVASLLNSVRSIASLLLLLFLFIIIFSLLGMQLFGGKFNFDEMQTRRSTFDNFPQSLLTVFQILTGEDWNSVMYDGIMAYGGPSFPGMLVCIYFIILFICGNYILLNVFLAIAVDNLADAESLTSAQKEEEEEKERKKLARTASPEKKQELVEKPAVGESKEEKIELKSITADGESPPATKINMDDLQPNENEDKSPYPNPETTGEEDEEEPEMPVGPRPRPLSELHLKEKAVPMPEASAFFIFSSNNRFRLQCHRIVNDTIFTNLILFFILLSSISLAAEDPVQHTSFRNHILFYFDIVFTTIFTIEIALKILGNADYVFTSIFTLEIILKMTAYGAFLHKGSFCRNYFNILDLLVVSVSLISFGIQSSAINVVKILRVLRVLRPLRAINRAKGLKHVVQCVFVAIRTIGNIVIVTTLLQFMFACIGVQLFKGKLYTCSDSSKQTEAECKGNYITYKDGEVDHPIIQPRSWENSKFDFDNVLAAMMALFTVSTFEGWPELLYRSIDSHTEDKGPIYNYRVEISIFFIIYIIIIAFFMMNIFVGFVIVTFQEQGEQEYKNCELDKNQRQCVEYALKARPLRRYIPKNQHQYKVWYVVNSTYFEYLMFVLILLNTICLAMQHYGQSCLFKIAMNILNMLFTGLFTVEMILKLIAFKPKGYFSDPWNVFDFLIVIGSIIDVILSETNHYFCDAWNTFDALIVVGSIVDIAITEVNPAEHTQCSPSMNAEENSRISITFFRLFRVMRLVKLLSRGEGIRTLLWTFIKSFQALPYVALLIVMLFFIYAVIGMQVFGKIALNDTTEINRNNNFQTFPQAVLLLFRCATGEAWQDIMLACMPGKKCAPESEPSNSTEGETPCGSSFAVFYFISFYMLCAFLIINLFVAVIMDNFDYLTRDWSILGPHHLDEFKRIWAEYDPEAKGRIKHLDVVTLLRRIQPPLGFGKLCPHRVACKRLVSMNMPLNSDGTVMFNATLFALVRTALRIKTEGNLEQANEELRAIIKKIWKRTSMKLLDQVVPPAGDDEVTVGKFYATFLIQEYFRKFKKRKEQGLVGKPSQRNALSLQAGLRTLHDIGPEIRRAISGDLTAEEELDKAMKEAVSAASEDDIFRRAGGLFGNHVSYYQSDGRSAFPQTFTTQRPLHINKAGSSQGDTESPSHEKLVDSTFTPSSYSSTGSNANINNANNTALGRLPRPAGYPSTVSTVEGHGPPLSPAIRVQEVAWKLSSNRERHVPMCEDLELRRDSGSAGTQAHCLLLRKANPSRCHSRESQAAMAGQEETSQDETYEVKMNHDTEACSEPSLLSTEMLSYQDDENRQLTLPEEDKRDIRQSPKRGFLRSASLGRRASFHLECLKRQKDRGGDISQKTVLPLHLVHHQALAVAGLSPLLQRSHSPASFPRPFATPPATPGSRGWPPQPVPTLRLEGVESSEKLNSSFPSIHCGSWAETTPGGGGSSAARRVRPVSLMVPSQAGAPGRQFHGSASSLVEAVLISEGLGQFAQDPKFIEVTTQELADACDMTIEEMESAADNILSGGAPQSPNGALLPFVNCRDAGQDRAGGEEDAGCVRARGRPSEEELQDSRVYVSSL", "conditions": "pH 7.4"}, "ND7/23 cells": {"test_system": "ND7/23 cells", "conditions": "48 h"}, "human CaV1.2 (hCaV1.2) [5]": {"target": "T1, human CaV1.2 (hCaV1.2)", "test": "cell-based", "conditions": "HEK293, read-out: inhibition of hCaV1.2 currents"}, "calcium currents": {"test_system": "calcium currents", "conditions": "cited from earlier work"}, "[6]": {"test_system": "voltage-gated calcium channels", "conditions": "cited from earlier work"}}, "note": "Read-outs that look alike come from different tables or passages of the source. Where a SMILES comes first, the peptide text is derived from it. Bridges are numbered along the chain shown (N, C = ends)."}
{"molecule": "CC[C@H](C)[C@H](NC(=O)[C@@H]1CSSC[C@@H]2NC(=O)[C@H](Cc3ccc(O)cc3)NC(=O)[C@H]([C@@H](C)CC)NC(=O)[C@H](C(C)C)NC(=O)CNC(=O)[C@H](CC(C)C)NC(=O)[C@H](CC(C)C)NC(=O)[C@H](CO)NC(=O)[C@H](C)NC(=O)[C@@H]3CCCN3C(=O)[C@@H]3CSSC[C@H](NC(=O)[C@H]([C@@H](C)CC)NC(=O)[C@H](CC(C)C)NC(=O)CNC(=O)[C@H](CCC(=O)O)NC(=O)[C@H](CSSC[C@H](NC(=O)[C@@H](N)CC(=O)O)C(=O)N[C@@H](Cc4c[nH]cn4)C(=O)N[C@@H](CCC(=O)O)C(=O)N[C@@H](CCCNC(=N)N)C(=O)N[C@@H](Cc4c[nH]c5ccccc45)C(=O)N[C@@H](CC(=O)O)C(=O)N[C@@H](Cc4c[nH]c5ccccc45)C(=O)N3)NC2=O)C(=O)N[C@@H](Cc2ccccc2)C(=O)N[C@@H]([C@@H](C)CC)C(=O)N[C@@H](C)C(=O)N[C@@H](Cc2ccccc2)C(=O)N1)C(=O)O", "note": "[Tx6.7] (H-DCHERWDWCPASLLGVIYCCEGLICFIAFCI-OH; disulfide 2-20, 9-25, 19-30)", "values": [{"measurement": "inhibitory effects on the sodium currents in rat DRG neurons", "setting": "[1]", "result": "no inhibitory effects"}, {"measurement": "shift in the current-voltage relationship, sodium currents", "setting": "[1]", "result": "did not induce a shift in the current-voltage relationship"}, {"measurement": "inhibition of peak potassium currents", "setting": "[2]", "result": "22.33 ± 7.81", "unit": "%"}, {"measurement": "inhibition of peak calcium currents", "setting": "[3]", "result": "59.29 ± 2.34", "unit": "%"}, {"measurement": "shift in the current-voltage relationship, calcium currents", "setting": "[3]; n = 3", "result": "did not induce a shift in the current-voltage relationship of calcium currents"}, {"measurement": "effects on hNaV1.3 currents", "setting": "human NaV1.3 (hNaV1.3)", "result": "no obvious effects"}, {"measurement": "effects on hNaV1.7 currents", "setting": "human NaV1.7 (hNaV1.7)", "result": "no obvious effects"}, {"measurement": "inhibition of hNaV1.8 currents", "setting": "hNaV1.8", "result": "7.30 ± 3.38", "unit": "%"}, {"measurement": "inhibition of hCaV2.2 currents", "setting": "human CaV2.2 (hCaV2.2)", "result": "24.67 ± 0.91", "unit": "%"}, {"measurement": "pain threshold", "setting": "Kunming mice", "result": "increased"}, {"measurement": "pain threshold increment percentage (maximum)", "setting": "Kunming mice", "result": 98.91, "unit": "%"}, {"measurement": "time of maximum analgesic effect", "setting": "Kunming mice", "result": 2, "unit": "h"}, {"measurement": "IC50", "setting": "human CaV1.2 (hCaV1.2) [4]", "result": "9.63 ± 1.12", "unit": "µM"}, {"measurement": "cytotoxicity against ND7/23 cells", "setting": "ND7/23 cells", "result": "no significant cytotoxicity"}, {"measurement": "Cell viability", "setting": "ND7/23 cells; 0.01 μM", "result": 101.95, "unit": "%"}, {"measurement": "Cell viability", "setting": "ND7/23 cells; 0.1 μM", "result": 105.01, "unit": "%"}, {"measurement": "Cell viability", "setting": "ND7/23 cells; 1 μM", "result": 99.18, "unit": "%"}, {"measurement": "Cell viability", "setting": "ND7/23 cells; 10 μM", "result": 98.60, "unit": "%"}, {"measurement": "Cell viability", "setting": "ND7/23 cells; 100 μM", "result": 94.80, "unit": "%"}, {"measurement": "Cell viability at all detected concentrations", "setting": "ND7/23 cells; 100 μM", "result": "more than 94%"}, {"measurement": "inhibition at 10 µM", "setting": "human CaV1.2 (hCaV1.2) [5]", "result": "56.6 ± 3.2", "unit": "%"}]}
{"molecule": "Ziconotide", "values": [{"measurement": "analgesic effect compared with Tx6.7", "setting": "Kunming mice", "result": "better analgesic effect than Tx6.7"}, {"measurement": "inhibition of calcium currents (ω family conotoxins)", "setting": "calcium currents", "result": "inhibiting calcium currents"}, {"measurement": "block of voltage-gated calcium channels (ω family)", "setting": "[6]", "result": "blockers of voltage-gated calcium channels"}]}
